Source: patent US20110229437A1, “Method of Treating Asthma with Antiviral Agents” (priority 2009, published 2011)

Key:
[1] = Case report: flu like symptoms of the same adult under Tamiflu; type: in vivo, human; details: Tamiflu 75 mg by mouth twice a day
[2] = Case report: asthma symptoms of an adult with history of asthma after a 5 day course of Tamiflu; details: one patient
Text: They had been using Advair® two inhalations a day or Symbicort® four puffs a day. Advair® is a combination formulation containing fluticasone propionate (a corticosteroid) and salmeterol xinafoate (a long-acting β2-adrenergic receptor agonist). Symbicort® contains two active ingredients which are delivered via a single inhaler: budesonide, a corticosteroid, and formoterol, a long-acting β2-agonist.
Singulair® contains montelukast, a leukotriene receptor antagonist (LTRA) used for the maintenance treatment of asthma and to relieve symptoms of seasonal allergies.

CCOC(=O)C1=C[C@@H](OC(CC)CC)[C@H](NC(C)=O)[C@@H](N)C1 [Tamiflu, Oseltamivir phosphate]
time until fatigue resolved ([1]; one patient): ≤ 1.5 days | time until feeling better and myalgias relieved ([1]; one patient): ≤ 12 h | fever after start of treatment ([1]; dropped from 39 C.° within 1.5 days): 38 C.° | asthma symptoms ([2]; during/after Tamiflu 75 mg by mouth twice a day for 5 days): diminished | level of asthmatic relief compared with prednisone 60 mg per day, reported by the patient ([2]; five weeks after using Tamiflu): similar

CC(C)(O)c1ccccc1CC[C@@H](SCC1(CC(=O)O)CC1)c1cccc(/C=C/c2ccc3ccc(Cl)cc3n2)c1 [Singulair, montelukast]
side effects in the patient ([2]; used for years): no side effects
